Experimental data reported in US12649723B2, “Carbonohydrazonoyl dicyanide compounds comprising 2 or more aryl or heteroaryl connected via linker and use thereof” (KOREA INSTITUTE OF SCIENCE AND TECHNOLOGY, priority 2020, dated 2026).

How the values were obtained:
tau protein = target: T1, tau protein (Homo sapiens, UniProt P10636); test: Tau-BiFC cell model: inhibition of tau protein aggregation; format: cell-based; conditions: for remaining activity at 10 µM: 48 h, compound 10 μM, BiFC fluorescence, Forskolin-only group = 100% tau protein-aggregated state, read-out: Response (% @10 μM); for IC50: Tau BiFC in cells, with Forskolin 30 μM, 48 hours
T1 construct: fused on or other part: Split fluorescent-protein halves for BiFC are fused to tau; In the published tau-BiFC line these are Venus VN173 and VC155
Method: (§1) In order to select novel tau protein aggregation-inhibiting substances, tau-BiFC cell model, in which formation of tau oligomers in living cells is easily observed, was used. Tau-BiFC cells were aliquoted into a 384-well plate. On the next day, the cells were treated with each of the compounds prepared according to Examples 1 to 175 at concentrations of 1 μM, 3 μM, and 10 μM, together with Forskolin (at a treatment concentration of 30 μM), which is a compound inducing tau protein aggregation by activating tau […] PKA. After 48 hours, nuclei in the cells were stained using Hoechst (at a treatment concentration of 2 μg/mL), and BiFC fluorescence intensity was automatically measured using Operetta (PerkinElmer) to count stained nuclei in each well out of the entire well plate. The group treated only with Forskolin, which induces tau protein aggregation, was set to a reference point of a 100% tau protein-aggregated state, and the effects of the compounds were confirmed using the equation “BiFC fluorescence intensity due to compound synthesized according to embodiment of present invention/(fluorescence intensity of control group treated only with Forskolin inducing tau protein aggregation−fluorescence intensity of untreated control group)×100”. Furthermore, the degree of cytotoxicity induced by the newly synthesized compound was also measured based on the 100% cell viability of the group treated only with Forskolin as a reference, and the cytotoxicity value of each compound was calculated using the equation “(number of stained nuclei in group treated with compound/number of stained nuclei in group treated with Forskolin)×100”. Based on the treatment results, substances inhibiting intracellular tau protein aggregation were selected from a series of candidate groups showing a tau protein aggregation inhibition rate of 70% or more and cell viability of 100% at a compound treatment concentration of 10 μM or more.
(§2) In order to evaluate dose-dependent tau protein aggregation inhibition effects of the compounds selected according to Experimental Example 1 on tau protein aggregation, tau-BiFC cells were treated with the selected compounds at concentrations of 0.03 μM, […], 0.3 μM, 1 μM, 3 μM, 10 μM, and 30 μM, respectively, together with Forskolin (at a treatment concentration of 30 μM), which is a tau protein aggregation inducing substance. After 48 hours, tau protein aggregation reaction and degrees of cytotoxicity were analyzed by observing images of the cells. IC50 and toxicity of the compounds were analyzed by way of nonlinear regression analysis of prism software (Graph Pad).

Tau-BiFC cells = test: Cell viability (cytotoxicity) in tau-BiFC cells, count of stained nuclei; format: cell-based; conditions: compound 10 μM; Forskolin-only group = 100% cell viability
Method: as §1, §2

T1 sequence (P10636 2-441 isoform P10636-8 limits assumed): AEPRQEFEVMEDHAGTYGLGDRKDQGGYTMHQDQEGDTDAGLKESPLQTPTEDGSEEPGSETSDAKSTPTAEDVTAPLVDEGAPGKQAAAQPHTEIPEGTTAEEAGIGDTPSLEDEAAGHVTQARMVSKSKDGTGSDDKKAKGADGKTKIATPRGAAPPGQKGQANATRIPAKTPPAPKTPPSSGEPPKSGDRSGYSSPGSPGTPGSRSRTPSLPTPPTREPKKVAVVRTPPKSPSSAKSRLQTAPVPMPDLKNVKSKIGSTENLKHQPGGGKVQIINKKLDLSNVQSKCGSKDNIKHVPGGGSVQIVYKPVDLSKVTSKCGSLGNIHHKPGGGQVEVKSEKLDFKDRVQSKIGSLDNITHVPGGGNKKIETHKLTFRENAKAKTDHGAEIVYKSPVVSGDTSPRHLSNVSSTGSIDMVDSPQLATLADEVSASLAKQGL

SMILES	remaining activity at 10 µM (tau protein)	Cell viability (% @10 μM) (Tau-BiFC cells)	IC50 (tau protein)
Cc1cncc(NC(=O)c2ccc(NN=C(C#N)C#N)cn2)n1 [Compound 41, (6-(6-methylpyrazin-2-ylcarbamoyl)pyridin-3-yl)carbonohydrazonoyl dicyanide]	0%	115.2%	
N#CC(C#N)=NNc1ccc(C(=O)Nc2cncnc2)nc1 [Compound 42, (6-(pyrimidin-5-ylcarbamoyl)pyridin-3-yl)carbonohydrazonoyl dicyanide]	0%	123.1%	
N#CC(C#N)=NNc1ccc(C(=O)Nc2ncccn2)nc1 [Compound 43, (6-(pyrimidin-2-ylcarbamoyl)pyridin-3-yl)carbonohydrazonoyl dicyanide]	3%	168.6%	
COc1ccc(NC(=O)c2ccc(NN=C(C#N)C#N)cc2)cc1 [Compound 44, (4-(4-methoxyphenylcarbamoyl)phenyl)carbonohydrazonoyl dicyanide]	0%	70.4%	
Cc1ccc(NC(=O)c2ccc(NN=C(C#N)C#N)cc2)cn1 [Compound 47, (4-(6-methylpyridin-3-ylcarbamoyl)phenyl)carbonohydrazonoyl dicyanide]	0%	122.7%	2580 nM
Cc1cncc(NC(=O)c2ccc(NN=C(C#N)C#N)cc2)c1 [Compound 48, (4-(5-methylpyridin-3-ylcarbamoyl)phenyl)carbonohydrazonoyl dicyanide]	0%	122.3%	
N#CC(C#N)=NNc1ccc(C(=O)Nc2cccnc2)cc1 [Compound 49, (4-(pyridin-3-ylcarbamoyl)phenyl)carbonohydrazonoyl dicyanide]	75.9%	117.2%	
N#CC(C#N)=NNc1ccc(C(=O)Nc2cncnc2)cc1 [Compound 50, (4-(pyrimidin-5-ylcarbamoyl)phenyl)carbonohydrazonoyl dicyanide]	86.6%	116.4%	
COc1cc(C(=O)Nc2cnc(C)cn2)ccc1NN=C(C#N)C#N [Compound 51, (2-methoxy-4-(5-methylpyrazin-2-ylcarbamoyl)phenyl)carbonohydrazonoyl dicyanide]	45.4%	107.1%	
Cc1cnc(NC(=O)c2ccc(NN=C(C#N)C#N)cc2C)cn1 [Compound 52, (3-methyl-4-(5-methylpyrazin-2-ylcarbamoyl)phenyl)carbonohydrazonoyl dicyanide]	24%	120.2%	
Cc1ccc(NC(=O)c2ccc(NN=C(C#N)C#N)cc2C)cn1 [Compound 53, (3-methyl-4-(6-methylpyridin-3-ylcarbamoyl)phenyl)carbonohydrazonoyl dicyanide]	22.9%	116.1%	
Cc1cncc(NC(=O)c2ccc(NN=C(C#N)C#N)cc2C)n1 [Compound 54, (3-methyl-4-(6-methylpyrazin-2-ylcarbamoyl)phenyl)carbonohydrazonoyl dicyanide]	8.3%	116%	
Cc1ccc(NC(=O)c2ccc(NN=C(C#N)C#N)c(C)c2)cn1 [Compound 55, (2-methyl-4-(6-methylpyridin-3-ylcarbamoyl)phenyl)carbonohydrazonoyl dicyanide]	65.6%	116.1%	
Cc1cnc(NC(=O)c2ccc(NN=C(C#N)C#N)c(F)c2)cn1 [Compound 56, (2-fluoro-4-(5-methylpyrazin-2-ylcarbamoyl)phenyl)carbonohydrazonoyl dicyanide]	0%	129.9%	1850 nM
COc1cc(C(=O)Nc2ccc(C)nc2)ccc1NN=C(C#N)C#N [Compound 57, (2-methoxy-4-(6-methylpyridin-3-ylcarbamoyl)phenyl)carbonohydrazonoyl dicyanide]	51.7%	108.6%	
